Source: patent US20250034216A1, “STEREOSELECTIVE COVALENT LIGANDS FOR ONCOGENIC AND IMMUNOLOGICAL PROTEINS” (The Scripps Research Institute, priority 2021, published 2025)

Tests used:
Assay in all cases: IA-DTB cysteine engagement
Format in all cases: binding
NSUN3_C298 = target: T1, NSUN3_C298 (Homo sapiens, UniProt Q9H649); settings: 22Rv1 cells, 20 μM probe, 1 h, relative to DMSO
T1 construct: endogenous in cells; host or cells: 22Rv1
T1 sequence (Q9H649 1-340): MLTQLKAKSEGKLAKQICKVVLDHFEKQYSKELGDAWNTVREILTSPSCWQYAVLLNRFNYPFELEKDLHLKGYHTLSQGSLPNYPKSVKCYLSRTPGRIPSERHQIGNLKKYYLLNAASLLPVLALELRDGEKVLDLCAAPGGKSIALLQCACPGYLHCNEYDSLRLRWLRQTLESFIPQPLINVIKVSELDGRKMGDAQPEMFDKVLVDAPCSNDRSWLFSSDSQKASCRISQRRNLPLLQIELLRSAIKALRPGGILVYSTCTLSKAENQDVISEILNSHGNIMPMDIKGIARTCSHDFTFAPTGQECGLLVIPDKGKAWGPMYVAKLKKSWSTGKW
Method in brief: (§1)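 Cells were treated in situ with electrophilic probes, then lysed, and the lysates (2 mg/mL protein) were labeled with IA-DTB for 1 h at ambient temperature. After reduction, alkylation and trypsin digestion, labeled peptides were streptavidin-enriched, TMT-labeled and fractionated. Engagement ratios are probe vs DMSO reporter intensities, averaged across replicates.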

PSME1_C22 = target: T2, PSME1_C22 (Homo sapiens, UniProt Q06323); settings: 22Rv1 cells, relative to DMSO; for % engagement PSME1_C22: 20 μM probe, 1 h; for % engagement PSME1_22: 5 μM probe, 1 h (FIG. 5B)
T2 construct: endogenous in cells; host or cells: 22Rv1
T2 sequence (Q06323 whole entry): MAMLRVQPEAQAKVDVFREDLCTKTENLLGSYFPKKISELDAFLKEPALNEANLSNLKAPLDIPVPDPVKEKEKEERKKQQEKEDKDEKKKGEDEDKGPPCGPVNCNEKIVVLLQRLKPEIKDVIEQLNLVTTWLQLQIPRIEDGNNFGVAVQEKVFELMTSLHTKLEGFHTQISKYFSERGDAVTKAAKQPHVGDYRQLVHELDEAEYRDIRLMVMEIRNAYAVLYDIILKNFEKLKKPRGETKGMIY
Method in brief: as §1

SLC25A20_C283 = target: T3, SLC25A20_C283 (Homo sapiens, UniProt O43772); settings: 22Rv1 cells, relative to DMSO; for % engagement SLC25A20_C283: 20 μM probe, 1 h; for % engagement SLC25A20_283: 5 μM probe, 1 h (FIG. 5B)
T3 construct: endogenous in cells; host or cells: 22Rv1
T3 sequence (O43772 1-301): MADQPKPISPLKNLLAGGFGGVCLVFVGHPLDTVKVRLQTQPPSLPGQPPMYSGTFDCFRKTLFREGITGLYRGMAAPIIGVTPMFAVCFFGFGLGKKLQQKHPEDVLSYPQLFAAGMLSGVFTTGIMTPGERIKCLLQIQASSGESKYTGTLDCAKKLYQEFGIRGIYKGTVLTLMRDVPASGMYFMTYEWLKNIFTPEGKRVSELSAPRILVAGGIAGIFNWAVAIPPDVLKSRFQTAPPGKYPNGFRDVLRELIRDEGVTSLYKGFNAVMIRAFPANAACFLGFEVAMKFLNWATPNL
Method in brief: as §1

Structure (SMILES) | % engagement NSUN3_C298 (NSUN3_C298) [%] | % engagement PSME1_C22 (PSME1_C22) [%] | % engagement SLC25A20_C283 (SLC25A20_C283) [%] | % engagement PSME1_22 (PSME1_C22) [%] | % engagement SLC25A20_283 (SLC25A20_C283) [%]
C=CC(=O)N1C[C@@H](c2ccc(Br)cc2)[C@H]1C(=O)Nc1cccc2cccnc12 [MY-1A, (2S,3R)-1-acryloyl-3-(4-bromophenyl)-N-(quinolin-8-yl)azetidine-2-carboxamide] | 35.5 | −2.25 | 37 | – | –
C=CC(=O)N1C[C@H](c2ccc(Br)cc2)[C@@H]1C(=O)Nc1cccc2cccnc12 [MY-1B, (2R,3S)-1-acryloyl-3-(4-bromophenyl)-N-(quinolin-8-yl)azetidine-2-carboxamide] | 55.5 | 67.75 | 92 | 44.38 | 82.75
C=CC(=O)N1C[C@H](c2ccc(Br)cc2)[C@H]1C(=O)Nc1cccc2cccnc12 [MY-3A, (2S,3S)-1-acryloyl-3-(4-bromophenyl)-N-(quinolin-8-yl)azetidine-2-carboxamide] | 38 | −14.5 | 66 | – | –
C=CC(=O)N1C[C@H](c2ccc(Br)cc2)[C@H]1C(=O)Nc1cccc2cccnc12 [MY-3B, (2S,3S)-1-acryloyl-3-(4-bromophenyl)-N-(quinolin-8-yl)azetidine-2-carboxamide] | 83 | −31.75 | −241 | – | –
CC#CC(=O)N1C[C@H](c2ccc(Br)cc2)[C@@H]1C(=O)Nc1cccc2cccnc12 [MY-45B, (2R,3S)-3-(4-bromophenyl)-1-(but-2-ynoyl)-N-(quinolin-8-yl)azetidine-2-carboxamide] | – | – | – | 69.50 | 20.50
